We go through 19 compounds from US20240315993A1, “ANTIPARASITIC COMPOUNDS” (Intervet Inc., priority 2021, published 2024).

In series [1] the test system is Beet Armyworm (Spodoptera exigua). The note with it: 128-well diet tray, average of eight wells, cited from earlier work; for Test A: percent mortality of Beet Armyworm (BAW) larvae, rating: 50 μg/cm^2 on artificial diet, second instar larvae, 5-7 days; for Test A: Bioassay on BAW, percent mortality rating: Beet Armyworm second instar larvae, 50 μg/cm^2, five to seven days.

Series [2] concerns Cabbage Looper (Trichoplusia ni). The conditions noted are these: 128-well diet tray, average of eight wells, cited from earlier work; for Test B: percent mortality of Cabbage Looper (CL) larvae, rating: 50 μg/cm^2 on artificial diet, second instar larvae, 5-7 days; for Test B: Bioassay on CL, percent mortality rating: Cabbage Looper second instar larvae, 50 μg/cm^2, five to seven days.

Series [3] deals with Yellow Fever Mosquito (Aedes aegypti). The note with it: 96-well plate, cited from earlier work; for Test C: Bioassay on Yellow Fever Mosquito, mortality rating: Aedes aegypti larvae about 1 day old, scored after 3 days; for Test C: mortality of Yellow Fever Mosquito larvae, rating: about 1 day-old larvae, graded after 3 days at room temperature.
Series [4] relates to juvenile soft ticks (Ornithodoros moubata). In words: Guinea pig - efficacy against argaside tick. It is filed as in vivo. The protocol: (§1) Guinea pigs were locally co-infested (using an infestation device on a shaved skin area) with juvenile soft ticks (Ornithodoros moubata) and bed bugs (Cimex lectularius) before the treatment day (Day 0) to provide a baseline-negative control value. Guinea pigs were treated orally (by gavage) or subcutaneously at a dose of 5 mg/kg bodyweight of a test compound in a formulation of 10% DMF/Emulsifier+90% Aqua ad injectabilia.
(§2) Repeated local infestations with both parasites were performed at different time points after treatment. Within approximately 45 min after each infestation ten engorged ticks and ten engorged bed bugs were • collected and the percentage of dead and damaged parasites per species were • assessed approximately 24 hours following collection. The efficacy was • calculated as % of inhibition ‘killed+damaged’ parasites in a treated group in comparison to the baseline-negative control (using a modified Schneider Orelli's formula).
(§3) Results: Activity of the test compounds at different evaluation time-points (≥80% inhibition were found active): […]

Series [5] has as its system bed bugs (Cimex lectularius). As to the kind of experiment: Guinea pig - efficacy against bed bug. It is filed as in vivo. The protocol: as §1, §2, §3
[6] abbreviates: 5 mg/kg subcutaneous, after 7 days.
[7] abbreviates: 5 mg/kg subcutaneous, after 10 days.
Where [8] appears, read: 5 mg/kg subcutaneous, after 14 days.
[9] abbreviates: 5 mg/kg subcutaneous, after 17 days.
Where [10] appears, read: 5 mg/kg subcutaneous, after 21 days.
Where [11] appears, read: 5 mg/kg subcutaneous, after 24 days.
Setting [12] is: 5 mg/kg subcutaneous, after 28 days.
The mark [13] stands for this setting: 5 mg/kg subcutaneous, after 31 days.
[14] abbreviates: 5 mg/kg subcutaneous, after 35 days.
Setting [15] is: 5 mg/kg, for at least one week, both administration routes.

Turning to `Cc1cc(NCCO)ccc1NC(=O)c1cc(NC(=O)C2C(c3ccc(F)c(C(F)(F)F)c3)C2(Cl)Cl)ccc1Cl` (stereo not shown) [c120], the “Test A: percent mortality of Beet Armyworm (BAW) larvae, rating” value (shortened to “Test A: percent mortality”) in series [1] was “A (50-100)”. For the same compound, the “Test B: percent mortality of Cabbage Looper (CL) larvae, rating” value (“Test B: percent mortality” below) in series [2] is “A (50-100)”.

In the case of `Cn1ccc2c(NC(=O)c3cc(NC(=O)C4C(c5cc(Cl)cc(Cl)c5)C4(Cl)Cl)ccc3Cl)cccc21` (stereo not shown) [c112], the “Test A: Bioassay on BAW, percent mortality rating” value in series [1] was “A (50-100)”. In addition, the “Test C: Bioassay on Yellow Fever Mosquito, mortality rating” value (from here on “Test C: Bioassay”) in series [3] is on record as “A (80-100)”. Moreover, in series [2], the “Test B: Bioassay on CL, percent mortality rating” value (shortened to “Test B … percent mortality rating”) is given as “A (50-100)”.

Regarding `CC(=O)Nc1ccc(NC(=O)c2cc(NC(=O)[C@H]3[C@H](c4ccc(F)c(Cl)c4)C3(Cl)Cl)cc(Cl)c2C)cc1` [c118], the “Test A: percent mortality” value in series [1] is on record as “A (50-100)”. Besides, the “Test C: mortality of Yellow Fever Mosquito larvae, rating” value in series [3] is listed as “A (80-100)”. In series [2], the “Test B: percent mortality” value is “A (50-100)”.

Take `O=C(Nc1ccc2ncsc2c1)c1cc(NC(=O)C2C(c3cc(Cl)cc(Cl)c3)C2(Cl)Cl)ccc1Cl` (stereo not shown) [c11]: the “Test A: Bioassay on BAW, percent mortality rating” value in series [1] is recorded as “A (50-100)”. Further, the “Test C: Bioassay” value in series [3] is “A (80-100)”. Moreover, the “Test B … percent mortality rating” value in series [2] is on record as “A (50-100)”.

Regarding `O=C(Nc1ccccc1)c1c(Cl)ccc(NC(=O)[C@H]2[C@H](c3ccc(F)c(Cl)c3)C2(Cl)Cl)c1Cl` [c122], the “Test A: percent mortality” value in series [1] is recorded as “A (50-100)”. The “Test C: mortality of Yellow Fever Mosquito larvae, rating” value in series [3] is “A (80-100)”. The “Test B: percent mortality” value in series [2] is reported as “A (50-100)”.

As to `CNc1ccc(NC(=O)c2cc(NC(=O)C3C(c4cc(Cl)cc(Cl)c4)C3(Cl)Cl)cc(Cl)c2Cl)cc1` (stereo not shown) [c80], in series [1], the “Test A: Bioassay on BAW, percent mortality rating” value was “A (50-100)”. In addition, the “Test C: Bioassay” value in series [3] is recorded as “A (80-100)”. The “Test B … percent mortality rating” value in series [2] is recorded as “A (50-100)”.

As for `CCn1ccc2cc(NC(=O)c3cc(NC(=O)C4C(c5cc(Cl)cc(Cl)c5)C4(Cl)Cl)ccc3Cl)ccc21` (stereo not shown) [c73], the “Test A: Bioassay on BAW, percent mortality rating” value in series [1] is “A (50-100)”. Moreover, the “Test C: Bioassay” value in series [3] is “A (80-100)”. Further, the “Test B … percent mortality rating” value in series [2] is reported as “A (50-100)”.

With `O=C(Nc1cncc([N+](=O)[O-])c1)c1cc(NC(=O)C2C(c3ccc(Cl)c(Cl)c3)C2(Cl)Cl)ccc1Cl` (stereo not shown) [c107], the “Test A: Bioassay on BAW, percent mortality rating” value in series [1] was “A (50-100)”. Further, the “Test C: Bioassay” value in series [3] was “A (80-100)”. For the same compound, in series [2], the “Test B … percent mortality rating” value was “A (50-100)”.

In the case of `O=C(Nc1ccc2sccc2c1)c1cc(NC(=O)C2C(c3cc(Cl)cc(Cl)c3)C2(Cl)Cl)ccc1Cl` (stereo not shown) [c28], in series [1], the “Test A: Bioassay on BAW, percent mortality rating” value is “A (50-100)”. The “Test C: Bioassay” value in series [3] is recorded as “A (80-100)”. In series [2], the “Test B … percent mortality rating” value was “A (50-100)”.

Consider `N#Cc1cc([N+](=O)[O-])ccc1NC(=O)c1cc(NC(=O)C2C(c3cc(Cl)cc(Cl)c3)C2(Cl)Cl)ccc1Cl` (stereo not shown) [c51], for which the “Test A: Bioassay on BAW, percent mortality rating” value in series [1] was “A (50-100)”. Further, in series [3], the “Test C: Bioassay” value is “A (80-100)”. In series [2], the “Test B … percent mortality rating” value is on record as “A (50-100)”.

Turning to `O=C(Nc1ccc(-c2nccs2)cc1)c1cc(NC(=O)C2C(c3cc(Cl)cc(Cl)c3)C2(Cl)Cl)ccc1Cl` (stereo not shown) [c41], the “Test A: Bioassay on BAW, percent mortality rating” value in series [1] was “A (50-100)”. Moreover, in series [3], the “Test C: Bioassay” value is recorded as “A (80-100)”. Moreover, the “Test B … percent mortality rating” value in series [2] is reported as “A (50-100)”.

On to `CN1Cc2ccc(NC(=O)c3cc(NC(=O)C4C(c5cc(Cl)cc(Cl)c5)C4(Cl)Cl)ccc3Cl)cc2C1=O` (stereo not shown) [c104], for which, in series [1], the “Test A: Bioassay on BAW, percent mortality rating” value was “A (50-100)”. Besides, the “Test C: Bioassay” value in series [3] was “A (80-100)”. Further, the “Test B … percent mortality rating” value in series [2] is given as “A (50-100)”.

In the case of `Cc1cc(NC(=O)OC(C)(C)C)ccc1NC(=O)c1cccc(NC(=O)C2C(c3cc(Cl)c(Cl)c(Cl)c3)C2(Cl)Cl)c1` (stereo not shown) [c74], the “Test A: Bioassay on BAW, percent mortality rating” value in series [1] was “A (50-100)”. Also, in series [3], the “Test C: Bioassay” value is on record as “B (More than 0 - Less than 80)”. In addition, in series [2], the “Test B … percent mortality rating” value is listed as “A (50-100)”.

In the case of `O=C(Nc1ccc2nc(Cl)[nH]c2c1)c1cc(NC(=O)C2C(c3cc(Cl)cc(Cl)c3)C2(Cl)Cl)ccc1Cl` (stereo not shown) [c15], in series [1], the “Test A: Bioassay on BAW, percent mortality rating” value was “A (50-100)”. In addition, the “Test C: Bioassay” value in series [3] was “B (More than 0 - Less than 80)”. For the same compound, in series [2], the “Test B … percent mortality rating” value is recorded as “A (50-100)”.

`Cc1cc(N)ccc1NC(=O)c1cc(NC(=O)C2C(c3ccc(F)c(Cl)c3)C2(Cl)Cl)ccc1Cl` (stereo not shown) [c50]: the “Test C: Bioassay” value in series [3] was “A (80-100)”. In addition, the “Test B … percent mortality rating” value in series [2] is given as “A (50-100)”.

In the case of `CC(=O)OCCNc1ccc(NC(=O)c2cc(NC(=O)C3C(c4ccc(F)c(C(F)(F)F)c4)C3(Cl)Cl)ccc2Cl)c(C)c1` (stereo not shown) [c119], in series [1], the “Test A: percent mortality” value is reported as “A (50-100)”. In addition, in series [2], the “Test B: percent mortality” value is listed as “A (50-100)”.

For the compound `Cc1cc(N)ccc1NC(=O)c1cc(NC(=O)C2C(c3cc(Cl)cc(Cl)c3)C2(Cl)Cl)ccc1Cl` (stereo not shown) [c82], the “Test C: Bioassay” value in series [3] is reported as “A (80-100)”. The “Test B … percent mortality rating” value in series [2] is “A (50-100)”.

As to `Cc1cc(N)ccc1NC(=O)c1cc(NC(=O)C2C(c3cc(Cl)cc(Cl)c3)C2(Cl)Cl)ccc1Cl` (stereo not shown) [c83], the “Test C: Bioassay” value in series [3] was “A (80-100)”. For the same compound, the “Test B … percent mortality rating” value in series [2] is “A (50-100)”.

For the compound `O=C(Nc1ncc(F)cc1F)c1cc(NC(=O)C2C(c3cc(C(F)(F)F)cc(C(F)(F)F)c3)C2(Cl)Cl)ccc1Cl` (stereo not shown) [Compound 471], the “activity against tick nymphs (≥80% inhibition, killed+damaged)” value in series [4] (5 mg/kg oral, Day 0) is “immediate activity”; in series [4] (5 mg/kg oral, after 7 days), “activity”; in series [4] (5 mg/kg oral, after 10 days) it was “activity”; in series [4] (5 mg/kg oral, after 14 days), “activity”; in series [4] (5 mg/kg oral, after 17 days) it was “activity”; in series [4] (5 mg/kg oral, after 21 days), “activity”. In addition, the “activity against tick nymphs (≥80% inhibition, killed+damaged)” value is given as “activity” in series [4] (5 mg/kg oral, after 24 days); “activity” in series [4] (5 mg/kg oral, after 28 days); “activity” in series [4] (5 mg/kg oral, after 31 days); “activity” in series [4] (5 mg/kg oral, after 35 days); “immediate activity” in series [4] (5 mg/kg subcutaneous, Day 0); “activity” in series [4] (setting [6]). In addition, the “activity against tick nymphs (≥80% inhibition, killed+damaged)” value in series [4] (setting [7]), in series [4] (setting [8]), in series [4] (setting [9]), in series [4] (setting [10]), in series [4] (setting [11]) and in series [4] (setting [12]) was “activity” each time. Further, the “activity against tick nymphs (≥80% inhibition, killed+damaged)” value in series [4] (setting [13]) and in series [4] (setting [14]) was “activity” each time. For the same compound, the “effective to control ticks” value in series [4] (setting [15]) was found to be 100%. The “activity against bed bugs (≥80% inhibition, killed+damaged)” value in series [5] (5 mg/kg oral, Day 0) is given as “immediate activity”; in series [5] (5 mg/kg oral, after 7 days), “activity”; in series [5] (5 mg/kg oral, after 10 days), “activity”; in series [5] (5 mg/kg oral, after 14 days), “activity”; in series [5] (5 mg/kg oral, after 17 days), “activity”; in series [5] (5 mg/kg oral, after 21 days), “activity”. Further, the “activity against bed bugs (≥80% inhibition, killed+damaged)” value in series [5] (5 mg/kg oral, after 24 days) is given as “activity”; in series [5] (5 mg/kg oral, after 28 days), “activity”; in series [5] (5 mg/kg oral, after 31 days), “activity”; in series [5] (5 mg/kg oral, after 35 days), “activity”; in series [5] (5 mg/kg subcutaneous, Day 0), “immediate activity”; in series [5] (setting [6]), “activity”. In addition, the “activity against bed bugs (≥80% inhibition, killed+damaged)” value in series [5] (setting [7]), in series [5] (setting [8]), in series [5] (setting [9]), in series [5] (setting [10]), in series [5] (setting [11]) and in series [5] (setting [12]) was “activity” throughout. Also, the “activity against bed bugs (≥80% inhibition, killed+damaged)” value in series [5] (setting [13]) and in series [5] (setting [14]) was “activity” throughout. Besides, the “effective to control bed bugs” value in series [5] (setting [15]) is reported as 100%.
